# According to patent US8044089B2, “3-3-di-substituted-oxindoles as inhibitors of translation initiation” (President and Fellows of Harvard College, priority 2004, dated 2011):
# pIC50: −log10 of the molar value.
# System: intracellular Ca^2+ stores
# Assay: Ca2+ release from intracellular stores (FURA-2AM loaded cells)
# Assay type: cell-based
# Design: key to Ca^2+ (Ca^2+ release from intracellular stores): a “+” denotes release; a “+/−” denotes inconclusive
# Details: not given
# Description: As a non-limiting example, compounds 1272 and 1273 (set forth in Table 1) were synthesized starting from 3-bromoaniline, which upon condensation with hydroxylamine and chloral hydrate followed by concentrated sulfuric acid yielded an inseparable regioisomeric mixture of 4- and 6-bromo isatins. The addition of the two phenyl groups to the three position of the oxindole allowed easy chromatographic separation of the 4- and 6-bromo-3,3-diphenyloxindoles 1272 and 1273. Table 1 sets forth biological data for diaryloxindole compounds including, but not limited to 1272 and 1273. For Tables 1-14, Ca^2+ refers to Ca^2+ release from intracellular stores where a “+” denotes release and a “+/−” denotes inconclusive; eIF2α-P refers to phosphorylation of eIF2α measured by Western blot; SRB refers to the inhibitory concentration to reduce cell growth by 50% (IC50) for growth inhibition of A549 lung cancer cells; and n.d. is not determined.
# Without intending to be bound by theory, the mechanism of action of translation initiation inhibitors is set forth in FIG. 1, and includes the depletion (complete or partial depletion) of intracellular calcium (Ca^2+) stores and phosphorylation of eIF2α. Compounds synthesized using the approaches described herein were screened for their ability to partially deplete intracellular Ca^2+ stores using FURA-2AM loaded cells (Benzaquen et al. (1995) Nature Medicine, 1:534, incorporated herein by reference in its entirety for all purposes). A limited subset of compounds were further screened for their ability to deplete endoplasmic reticulum (ER) Ca^2+. The Ca^2+ content of the ER was monitored using ER-targeted, Ca^2+ sensitive, recombinant proteins. These recombinant proteins emitted light by fluorescent resonance energy transfer (FRET) as a function of the Ca^2+ content of the medium. Such assays are previously described (Miyawaki, A.; Mizuno, H.; Llopis, J.; Tsien, R. Y.; Jalink, K. Cameleons as cytosolic and intra-organellar calcium probes, Oxford University Press: Oxford, London, 2001; pp 3-16, incorporated herein by reference in its entirety for all purposes). Compounds that depleted Ca^2+ were further evaluated for their ability to phosphorylate eIF2α. eIF2α phosphorylation was measured by Western blot analysis using the phospho-specific anti-eIF2α antibody, as previously described (Aktas et al. (1998) Proc. Natl. Acad. Sci. USA, 95:8280, incorporated herein by reference in its entirety for all purposes).
row,Structure (SMILES),Ca^2+ (Ca^2+ release from intracellular stores)
1,COc1ccc(C2(c3ccc(OC)cc3O)C(=O)Nc3ccccc32)c(O)c1 [Compound 1163],+
2,COC(=O)C(N)Cc1ccc(O)c(C2(c3ccccc3)C(=O)Nc3ccccc32)c1 (stereo not drawn) [Compound 1171],+
3,CC(C)(C)c1ccc(O)c(C2(c3ccccc3)CNc3ccccc32)c1 (stereo not drawn) [Compound 1182],+
4,CC(C)(C)c1ccc(O)c(C2(c3cc(C(C)(C)C)ccc3O)C(=O)Nc3ccccc32)c1 [Compound 1195],+
5,CC(C)(C)c1ccc(O)c(C2(c3ccccc3)C(=O)Nc3c(Br)cccc32)c1 (stereo not drawn) [Compound 1196],+
6,CN(C)CCCCOc1cccc(C2(c3ccccc3)C(=O)Nc3ccccc32)c1O (stereo not drawn) [Compound 1199],+
7,[N-]=[N+]=NCCCCOc1cccc(C2(c3ccccc3)C(=O)Nc3ccccc32)c1O (stereo not drawn) [Compound 1200],+
8,O=C1Nc2ccccc2C1(c1ccccc1)c1cc(O)ccc1O (stereo not drawn) [Compound 1201],+
9,C=CCCCOc1ccc(O)c(C2(c3ccccc3)C(=O)Nc3ccccc32)c1 (stereo not drawn) [Compound 1202],+
10,O=C1Nc2ccccc2C1(c1ccccc1)c1cc(OCCCCBr)ccc1O (stereo not drawn) [Compound 1203],+
11,CN(C)CCCCOc1ccc(O)c(C2(c3ccccc3)C(=O)Nc3ccccc32)c1 (stereo not drawn) [Compound 1216],+/−
12,[N-]=[N+]=NCCCCOc1ccc(O)c(C2(c3ccccc3)C(=O)Nc3ccccc32)c1 (stereo not drawn) [Compound 1219],+
13,O=C1NC(=O)C(Cc2ccc(O)c(C3(c4ccccc4)C(=O)Nc4ccccc43)c2)S1 (stereo not drawn) [Compound 1220],+/−
14,CC(C)(C)c1ccc(O)c(C2(c3cccs3)C(=O)Nc3ccccc32)c1 (stereo not drawn) [Compound 1222],+
15,C=CCOCN1C(=O)C(c2ccccc2)(c2cc(C(C)(C)C)ccc2O)c2ccccc21 (stereo not drawn) [Compound 1227],+
16,NCCCCOc1ccc(O)c(C2(c3ccccc3)C(=O)Nc3ccccc32)c1 (stereo not drawn) [Compound 1228],+
17,CC(C)(C)c1cccc(C2(c3ccc(O)cc3)C(=O)Nc3ccccc32)c1 (stereo not drawn) [Compound 1232],+

row,Structure (SMILES),Ca^2+ (Ca^2+ release from intracellular stores)
1,CC(C)(C)c1ccc(O)c(C2(c3ccccc3)C(=O)Nc3ccc(NS(=O)(=O)c4cccc5ccccc45)cc32)c1 (stereo not drawn) [Compound 1238],+/−
2,O=C1Nc2ccccc2C1(c1ccc(O)cc1)c1ccc(Oc2ccccc2)cc1 (stereo not drawn) [Compound 1260],+
3,O=C1Nc2ccccc2C1(c1ccc(O)cc1)c1ccc(-c2ccccc2)cc1 (stereo not drawn) [Compound 1261],+
4,CN(C)c1ccc(C2(c3ccc(O)cc3)C(=O)Nc3ccccc32)cc1 (stereo not drawn) [Compound 1262],+/−
5,O=C1Nc2ccc(OC(F)(F)F)cc2C1(c1ccccc1)c1ccccc1 [Compound 1263],+
6,CCCc1ccc(C2(c3ccccc3)C(=O)Nc3ccccc32)cc1 (stereo not drawn) [Compound 1296],+
7,CN1C(=O)C(c2ccccc2)(c2ccccc2)c2ccccc21 [Compound 1301],+
8,C=CCN1C(=O)C(c2ccccc2)(c2ccccc2)c2ccccc21 [Compound 1303],+/−
9,CC(C)(C)c1ccc(O)c(C2(c3ccccc3)C(=O)Nc3ccc(F)cc32)c1 (stereo not drawn) [Compound 1312],+
10,Cc1cc2c(c(C3(c4ccccc4)C(=O)Nc4ccccc43)c1)NCC2 (stereo not drawn) [Compound 1313],+
11,O=C1Nc2ccccc2C1(c1cccc(Cl)c1)n1ccnc1 (stereo not drawn) [Compound 1314],+
12,CC(C)(C)c1cccc(C2(n3ccnc3)C(=O)Nc3ccccc32)c1 (stereo not drawn) [Compound 1318],+
13,CC(C)(C)c1ccc(OS(=O)(=O)CC23CCC(CC2=O)C3(C)C)c(C2(c3ccccc3)C(=O)Nc3ccccc32)c1 (stereo not drawn) [Compound 1319],+
14,CC(C)(C)c1ccc(OC(=O)CCCCCCC(=O)O)c(C2(c3ccccc3)C(=O)Nc3ccccc32)c1 (stereo not drawn) [Compound 1321],+
15,CC(C)(C)c1ccc(OC(=O)CCCC(=O)NO)c(C2(c3ccccc3)C(=O)Nc3ccccc32)c1 (stereo not drawn) [Compound 1323],+
16,Cc1cc(O)c(NS(=O)(=O)c2ccc(C(C)(C)C)cc2)cc1C1(c2ccccc2)C(=O)Nc2ccccc21 (stereo not drawn) [Compound 1648],+

# System: A549 lung cancer cells
# Assay: SRB growth inhibition of A549 lung cancer cells
# Assay type: cell-based, human
# Details: A549 lung cancer cells; unit inferred; read-out: SRB (IC50 for growth inhibition of A549 lung cancer cells)
# Description: As a non-limiting example, compounds 1272 and 1273 (set forth in Table 1) were synthesized starting from 3-bromoaniline, which upon condensation with hydroxylamine and chloral hydrate followed by concentrated sulfuric acid yielded an inseparable regioisomeric mixture of 4- and 6-bromo isatins. The addition of the two phenyl groups to the three position of the oxindole allowed easy chromatographic separation of the 4- and 6-bromo-3,3-diphenyloxindoles 1272 and 1273. Table 1 sets forth biological data for diaryloxindole compounds including, but not limited to 1272 and 1273. For Tables 1-14, Ca^2+ refers to Ca^2+ release from intracellular stores where a “+” denotes release and a “+/−” denotes inconclusive; eIF2α-P refers to phosphorylation of eIF2α measured by Western blot; SRB refers to the inhibitory concentration to reduce cell growth by 50% (IC50) for growth inhibition of A549 lung cancer cells; and n.d. is not determined. […]
row,Structure (SMILES),pIC50
1,CC(C)(C)c1ccc(O)c(C2(c3ccccc3)CNc3ccccc32)c1 (stereo not drawn) [Compound 1182],4.92
2,CN(C)CCCCOc1cccc(C2(c3ccccc3)C(=O)Nc3ccccc32)c1O (stereo not drawn) [Compound 1199],< 4.70
3,CN(C)CCCCOc1ccc(O)c(C2(c3ccccc3)C(=O)Nc3ccccc32)c1 (stereo not drawn) [Compound 1216],< 4.70
4,O=C1NC(=O)C(Cc2ccc(O)c(C3(c4ccccc4)C(=O)Nc4ccccc43)c2)S1 (stereo not drawn) [Compound 1220],4.80
5,O=C1Nc2ccccc2C1(c1ccccc1)c1cc(C(F)(F)F)ccc1O (stereo not drawn) [Compound 1243],< 4.70
6,O=C1Nc2ccccc2C1(c1ccc(O)cc1)c1ccc(O)cc1 [Compound 1259],< 4.70
7,O=C1Nc2ccccc2C1(c1ccc(O)cc1)c1ccc(Oc2ccccc2)cc1 (stereo not drawn) [Compound 1260],4.92
8,CCCc1ccc(C2(c3ccccc3)C(=O)Nc3ccccc32)cc1 (stereo not drawn) [Compound 1296],4.96
9,O=C1N(Cc2ccc(Cl)cc2)c2ccccc2C1(c1ccccc1)c1ccccc1 [Compound 1302],4.85
10,C=CCN1C(=O)C(c2ccccc2)(c2ccccc2)c2ccccc21 [Compound 1303],4.82
11,O=C1N(CO)c2ccccc2C1(c1ccccc1)c1ccccc1 [Compound 1304],5.00
12,CCCCOc1ccc(S(=O)(=O)N2C(=O)C(c3ccccc3)(c3ccccc3)c3ccccc32)cc1 [Compound 1306],< 4.70
13,O=C1N(S(=O)(=O)c2ccc(Oc3ccccc3)cc2)c2ccccc2C1(c1ccccc1)c1ccccc1 [Compound 1307],< 4.70
14,CC(=O)Nc1ccc(S(=O)(=O)N2C(=O)C(c3ccccc3)(c3ccccc3)c3ccccc32)cc1 [Compound 1308],4.96
15,CC(C)(C)c1ccc(S(=O)(=O)N2C(=O)C(c3ccccc3)(c3ccccc3)c3ccccc32)cc1 [Compound 1311],4.96
16,O=C1Nc2ccccc2C1(c1cccc(Cl)c1)n1ccnc1 (stereo not drawn) [Compound 1314],< 4.70
17,O=C1Nc2ccccc2C1(c1ccccc1)n1ccnc1 (stereo not drawn) [Compound 1315],< 4.70
18,O=C1Nc2ccccc2C1(c1cccc(F)c1)n1ccnc1 (stereo not drawn) [Compound 1316],< 4.70
19,Cc1cccc(C2(n3ccnc3)C(=O)Nc3ccccc32)c1 (stereo not drawn) [Compound 1317],< 4.70
20,CC(C)(C)c1cccc(C2(n3ccnc3)C(=O)Nc3ccccc32)c1 (stereo not drawn) [Compound 1318],5.70
21,CC(C)(C)c1ccc(OC(=O)CCCCCCC(=O)O)c(C2(c3ccccc3)C(=O)Nc3ccccc32)c1 (stereo not drawn) [Compound 1321],4.80
22,COc1ccc(C2(c3ccccc3)C(=O)Nc3ccccc32)c(CC(=O)O)c1 (stereo not drawn) [Compound 1327],< 4.70
23,CC(C)(C)c1ccc(O)c(C2(c3ccccc3)C(=O)N(CC(=O)O)c3ccccc32)c1 (stereo not drawn) [Compound 1339],< 4.70
24,Cc1cc(C2(c3ccccc3)C(=O)Nc3c(C(=O)O)cccc32)c(NS(=O)(=O)c2ccc(C(C)(C)C)cc2)cc1O (stereo not drawn) [Compound 1431],< 4.70
25,CC(=O)Nc1cc(O)c(C)cc1C1(c2ccccc2)C(=O)Nc2ccccc21 (stereo not drawn) [Compound 1639],< 4.70

# Results, then the compound that gave them:
row,pIC50,Structure (SMILES)
1,5.00,COc1ccc(C2(c3ccc(OC)cc3O)C(=O)Nc3ccccc32)c(O)c1 [Compound 1163]
2,5.52,CC(C)(C)c1ccc(O)c(C2(c3cc(C(C)(C)C)ccc3O)C(=O)Nc3ccccc32)c1 [Compound 1195]
3,5.52,CC(C)(C)c1ccc(O)c(C2(c3ccccc3)C(=O)Nc3c(Br)cccc32)c1 (stereo not drawn) [Compound 1196]
4,5.52,[N-]=[N+]=NCCCCOc1cccc(C2(c3ccccc3)C(=O)Nc3ccccc32)c1O (stereo not drawn) [Compound 1200]
5,5.22,C=CCCCOc1ccc(O)c(C2(c3ccccc3)C(=O)Nc3ccccc32)c1 (stereo not drawn) [Compound 1202]
6,5.10,O=C1Nc2ccccc2C1(c1ccccc1)c1cc(OCCCCBr)ccc1O (stereo not drawn) [Compound 1203]
7,5.30,[N-]=[N+]=NCCCCOc1ccc(O)c(C2(c3ccccc3)C(=O)Nc3ccccc32)c1 (stereo not drawn) [Compound 1219]
8,5.05,CC(C)(C)c1ccc(O)c(C2(c3cccs3)C(=O)Nc3ccccc32)c1 (stereo not drawn) [Compound 1222]
9,5.52,C=CCOCN1C(=O)C(c2ccccc2)(c2cc(C(C)(C)C)ccc2O)c2ccccc21 (stereo not drawn) [Compound 1227]
10,5.30,NCCCCOc1ccc(O)c(C2(c3ccccc3)C(=O)Nc3ccccc32)c1 (stereo not drawn) [Compound 1228]
11,5.40,CC(C)(C)c1cccc(C2(c3ccc(O)cc3)C(=O)Nc3ccccc32)c1 (stereo not drawn) [Compound 1232]
12,5.52,CC(C)(C)c1ccc(O)c(C2(c3ccccc3)C(=O)Nc3ccc(NS(=O)(=O)c4cccc5ccccc45)cc32)c1 (stereo not drawn) [Compound 1238]
13,5.40,CC(C)(C)c1ccc(O)c(C2(c3ccccc3)C(=O)N(c3ccccc3)c3ccccc32)c1 (stereo not drawn) [Compound 1255]
14,5.00,O=C1Nc2ccccc2C1(c1ccc(O)cc1)c1ccc(-c2ccccc2)cc1 (stereo not drawn) [Compound 1261]
15,5.00,CN(C)c1ccc(C2(c3ccc(O)cc3)C(=O)Nc3ccccc32)cc1 (stereo not drawn) [Compound 1262]
16,5.10,O=C1Nc2ccc(OC(F)(F)F)cc2C1(c1ccccc1)c1ccccc1 [Compound 1263]
17,5.10,O=C1N(c2ccccc2)c2ccccc2C1(c1ccccc1)c1ccccc1 [Compound 1300]
18,5.40,CC(C)(C)c1ccc(O)c(C2(c3ccccc3)C(=O)Nc3ccc(F)cc32)c1 (stereo not drawn) [Compound 1312]
19,5.70,CC(C)(C)c1ccc(OS(=O)(=O)CC23CCC(CC2=O)C3(C)C)c(C2(c3ccccc3)C(=O)Nc3ccccc32)c1 (stereo not drawn) [Compound 1319]
20,5.52,CC(C)(C)c1ccc(OC(=O)CCCC(=O)NO)c(C2(c3ccccc3)C(=O)Nc3ccccc32)c1 (stereo not drawn) [Compound 1323]

# Same assay, conditions: Homo sapiens; A549 lung cancer cells; unit inferred; read-out: SRB (IC50 for growth inhibition of A549 lung cancer cells)
row,pIC50,Structure (SMILES)
1,< 4.70,CC(C)(C)c1ccc2c(c1)C1(c3ccccc3)C(=O)N(C/C=C\CO2)c2ccccc21 (stereo not drawn) [Compound 1291]
2,< 4.70,Cc1cc2c(c(C3(c4ccccc4)C(=O)Nc4ccccc43)c1)NCC2 (stereo not drawn) [Compound 1313]
3,5.40,CC(C)(C)c1ccc(OCC#N)c(C2(c3ccccc3)C(=O)N(CC#N)c3ccccc32)c1 (stereo not drawn) [Compound 1320]
